Values joined by “and” are separate entries in the source; they are usually repeats but may differ in a detail not shown here. Identical values can stand only once.
System: 885724-159-R-J1-PDC complex spheroid viability
Assay: Anticancer human tumor 885724-159-R-J1-PDC patient-derived pancreatic adenocarcinoma cell line growth inhibition [GQUAD]
Conditions: for viability, T/C: stronger effect = lower value
From the text: DNA G-quadruplex Stabilizer Agents in Combinations in Complex Spheroids
A high-throughput screen of multi-cell type tumor spheroids was designed to identify active combinations of DNA G-quadruplex stabilizer agents and targeted small molecules. Complex spheroids include a stromal component modeled by human endothelial cells (HUVEC) and fibroblasts modeled by human mesenchymal stem cells (MSCs). The concentration ranges selected for each drug and investigational agent were based upon clinically achievable concentrations if the clinical Cmax of the agent was known.
Compounds. The drugs and investigational agents: pidnarulex (CX-5461; NSC782164), APTO-253 (NSC789042), BRACO-19 (NSC847499), peposertib (NSC802822), ceralasertib (NSC780249), elimusertib (NSC800525), camonsertib (NSC841442), AZD-1390 (NSC803789), olaparib (NSC753686), talazoparib (NSC767125), ART-558 (NSC835418), sotorasib (NSC818433), MRTX-1133 (NSC836407), SN-38 (NSC673596), topotecan (NSC609699), etoposide (NSC141540), doxorubicin (NSC123127), gemcitabine (NSC613327), 5-fluorouracil (NSC19893), paclitaxel (NSC125973), vemurafenib (NSC761431), panobinostat (NSC761190), R-306465 (JNJ-16241199; NSC773264), adavosertib (NSC754352), TP-3654 (NSC805149), carboplatin (NSC241240), KSQ-4279 (NSC840948), and staurosporine (NSC755774) were obtained from the National Cancer Institute (NCI) Developmental Therapeutics Program Chemical Repository (34). The FDA-approved anticancer drug set is available from the NCI Developmental Therapeutics Program. […] The stock solutions were prepared in dimethyl sulfoxide (DMSO, Sigma-Aldrich, St. Louis, MO, cat. D2650) at 800-fold the tested concentration and stored at -70 degrees C prior to their use. All drugs and investigational agents were tested over a range starting from a high concentration at or near the clinical Cmax and decreasing in half-log increments. If the clinical Cmax for an agent had not been determined, the highest concentration tested was 10 microM.
2.3 Cell Culture. All cells were maintained in an incubator at 37 degrees C and 5% CO2 with 95% humidity. The PDC lines were cultured according to standard operating procedures established by the NCI PDMR. All PDCs were thawed and cultured in Matrigel-coated flasks prepared with a working solution of 1X Ham's F-12 nutrient mix, without supplementation (Invitrogen, cat. 11765054), 100 U/mL penicillin-streptomycin (Invitrogen, cat. 15140122), and 2.5% Matrigel (Corning Inc., cat. 354248) for the first three passages. The 857933-349-R-J2-PDC line was cultured in 6C/Colon 1B media, which includes advanced DMEM/F-12 (Thermo Fisher Scientific, cat. 12634028), 10 mM HEPES (Thermo Fisher Scientific, cat. 15630080), 1X GlutaMAX supplement (Thermo Fisher Scientific, cat. 35050061), 0.1 mg/mL primocin (InvivoGen, cat. ant-pm-2), 10% defined fetal bovine serum, heat inactivated (HyClone Laboratories Inc., cat. SH30070.03HI), 50% L-WRN conditioned media (ATCC, cat. CRL-3276), 1.25 mM N-Acetyl-L-cysteine (Sigma-Aldrich, cat. A9165), 10 mM nicotinamide (Sigma-Aldrich, cat. N0636), 1X B-27 supplement (Thermo Fisher Scientific, cat. 17504044), 1X N-2 supplement (Thermo Fisher Scientific, cat. 17502048), 10 microM Y-27632 dihydrochloride (Tocris Bioscience, cat. 1254), and 50 ng/mL human EGF recombinant protein (Thermo Fisher Scientific, cat. PHG0311). The 485176-168-R4-J1-PDC line was cultured in Panc media, which includes all 6C/Colon 1B media components plus 100 ng/mL human FGF-10 (Thermo Fisher Scientific, cat. 100-26), 500 nM SB-431542 (Selleckchem, cat. S1067), and gastrin (Tocris, cat. 3006).
[…]

[1] = compound alone, run of 02/20/2024
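Also: spheroids exposed to agents for seven days before readout.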
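For viability, T/C in this document: percent of vehicle control viability where 100% = DMSO wells.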

Row | SMILES | IC50 (curve of compound) | IC50 [1] [nM] | IC50 (compound alone, run of 02/26/2024) [nM] | viability, T/C (compound 0.0316 µM) | viability, T/C (compound 0.1 µM) | viability, T/C (compound 0.316 µM) | viability, T/C (compound 1 µM) | viability, T/C (compound 3.16 µM) | viability, T/C (compound 10 µM) | viability, T/C (compound 0.000999 µM) | viability, T/C (compound 0.00316 µM) | viability, T/C (compound 0.00999 µM) | viability, T/C (compound 0.0999 µM)
1 | COc1ccc([C@@H](O)c2cc(-c3ncnc4cc(N5CCOCC5)ccc34)c(F)cc2Cl)nn1 | 6400 nM and 5560 nM and 5780 nM | – | – | 97.9% and 93.6% and 102% | 99.9% and 83.8% and 90.8% | 85.5% and 98.2% and 81.1% | 87.8% and 74.6% and 83.2% | 64.8% and 59.1% and 64.2% | 39.9% and 41.8% and 37.1% | – | – | – | –
2 | COc1ncnc(C2CC2)c1-c1ncc2cnn(Cc3ccc(-c4nc(C(F)(F)F)cn4C(C)C)cc3)c2n1 | > 10000 nM | – | – | 86.6% and 90.5% and 93% | 95.1% and 90.7% and 98.2% | 99% and 97.4% and 93.2% | 99.8% and 90.6% and 97.7% | 90.2% and 96% and 92.5% | 115% and 101% and 113% | – | – | – | –
3 | Cc1[nH]c2ccc(F)cc2c1-c1nc2c3cccnc3c3ncccc3c2[nH]1 | – | > 10000 | > 10000 | 100% [middle of 12 runs] | – | 92.7% [middle of 12 runs] | 76.8% [middle of 12 runs] | – | 77.7% [middle of 12 runs] | – | – | – | –
4 | Cc1[nH]c2ccccc2c1CCNCc1ccc(/C=C/C(=O)NO)cc1 | 298 nM and > 316 nM and 242 nM | – | – | 108% and 83.9% and 98.7% | – | 47.5% and 47.9% and 42.7% | – | – | – | 92.3% and 106% and 93.5% | 91.4% and 98.9% and 103% | 95.6% and 86.5% and 91.7% | 95.6% and 86.5% and 74.5%
5 | Cc1cnc(CNC(=O)c2c(=O)c3ccc(N4CCCN(C)CC4)nc3n3c2sc2ccccc23)cn1 | – | > 10000 | – | – | – | 98.5% [middle of 12 runs] | 87.6% [middle of 11 runs] | 80.1% [middle of 12 runs] | 77.7% [middle of 12 runs] | – | – | – | –
6 | Cn1ncnc1[C@H]1c2n[nH]c(=O)c3cc(F)cc(c23)N[C@@H]1c1ccc(F)cc1 | > 316 nM | – | – | 92.5% and 97.9% and 93.9% | – | 89.2% and 88% and 94.4% | – | – | – | 93.4% and 97.4% and 94.5% | 108% and 94.8% and 82.2% | 87.3% and 97.6% and 97.2% | 88.5% and 97.7% and 103%
7 | O=C(NO)c1cnc(N2CCN(S(=O)(=O)c3ccc4ccccc4c3)CC2)nc1 | 859 nM and 726 nM and 723 nM | – | – | 90.6% and 97.6% and 84% | 98.7% and 96.6% and 80% | 94.2% and 85.3% and 72% | 43.3% and 36.8% and 41.2% | 1.62% and 0.69% and 11.8% | 0.25% and 0.51% and 0.27% | – | – | – | –
8 | O=C(c1cc(Cc2n[nH]c(=O)c3ccccc23)ccc1F)N1CCN(C(=O)C2CC2)CC1 | > 10000 nM | – | – | 99.2% and 89.1% and 108% | 101% and 98.7% and 92.9% | 95.6% and 92.5% and 106% | 87% and 108% and 83.3% | 90.5% and 89.9% and 99.1% | 97.6% and 90.9% and 82.7% | – | – | – | –
9 | O=c1[nH]cc(F)c(=O)[nH]1 | > 10000 nM | – | – | 96.3% and 85.1% and 106% | 100% and 95.1% and 93.2% | 96.9% and 89% and 95.5% | 91.2% and 94% and 92.8% | 94.3% and 94.6% and 93.9% | 88.3% and 87.7% and 92% | – | – | – | –

Now from value to compound, other results behind:

Row | IC50 (curve of compound) | IC50 [1] [nM] | IC50 (compound alone, run of 02/26/2024) [nM] | SMILES | viability, T/C (compound 0.0316 µM) | viability, T/C (compound 0.1 µM) | viability, T/C (compound 0.316 µM) | viability, T/C (compound 1 µM) | viability, T/C (compound 3.16 µM) | viability, T/C (compound 10 µM) | viability, T/C (compound 0.000999 µM) | viability, T/C (compound 0.00316 µM) | viability, T/C (compound 0.00999 µM) | viability, T/C (compound 0.0999 µM)
10 | > 10000 nM | – | – | COc1cc(C2c3cc4c(cc3C(OC3OC5COC(C)OC5C(O)C3O)C3COC(=O)C23)OCO4)cc(OC)c1O (stereo not drawn) | 91.7% and 104% and 96.9% | 109% and 103% and 96.3% | 97.6% and 98.6% and 86.9% | 88.8% and 96.8% and 89% | 88.5% and 77.7% and 77.3% | 85.7% and 76.8% and 76.7% | – | – | – | –
11 | 2350 nM and 2390 nM and 2140 nM | – | – | COc1cccc2c1C(=O)c1c(O)c3c(c(O)c1C2=O)CC(O)(C(=O)CO)CC3OC1CC(N)C(O)C(C)O1 (stereo not drawn) | 92.3% and 103% and 104% | 92.3% and 81.3% and 102% | 80.3% and 79.5% and 78.9% | 84.3% and 81.4% and 81.6% | 38.4% and 40.1% and 34.5% | 4.02% and 1.94% and 3.83% | – | – | – | –
12 | > 10000 nM | – | – | Cc1cccc(N(C)C(=O)C2C(O)CCN2c2nc(C)cc(C(F)(F)F)c2C#N)c1 (stereo not drawn) | 98.5% and 93% and 97.9% | 93.8% and 90.7% and 89.8% | 90.9% and 103% and 97% | 92.1% and 105% and 93.5% | 97.1% and 97.4% and 96.8% | 95.8% and 104% and 89.9% | – | – | – | –
13 | > 10000 nM | – | – | Nc1ccn(C2OC(CO)C(O)C2(F)F)c(=O)n1 (stereo not drawn) | 94.4% and 88% and 85.7% | 93.7% and 90.3% and 81.5% | 74.7% and 78.5% and 86.1% | 73.9% and 75.2% and 79.9% | 80.9% and 58.4% and 67% | 69% and 61% and 68.9% | – | – | – | –

Source: PubChem BioAssay AID2060502 (Molecular Pharmacology Branch, DTP, NCI, 2025)
